Source: US7790899B2, “Synthesis of N-(4-fluorobenzyl)-N-(1-methylpiperidin-4-yl)-N′-(4-(2-methylpropyloxy)phenylmethyl)carbamide and its tartrate salt and crystalline forms” (ACADIA Pharmaceuticals, Inc., priority 2004, dated 2010)
Where a name gives a salt, the structure may show the parent alone. Read-outs that look alike come from different tables or passages of the source.

What was measured:
[1] = Particle size distribution; type: physicochemical
[2] = Stability test, thermal treatment (sealed ampoules, 100° C., HPLC purity); type: physicochemical; conditions: 1 week
Method: (§1) HPLC: HPLC measurements were carried out with a HP LC1090M, Column Symmetry C18, 3.0·150 mm.
The compounds of Examples 3(b) (polymorph A), 25 (polymorph B), and 36 (polymorph C) were placed in sealed ampoules and exposed for 1 week to 100° C. […] The products where analyzed by HPLC and the purity was detected to indicate chemical stability via decomposition.

[3] = Stability test, exposure to humidity (open containers, 60° C., 75% relative humidity); type: physicochemical; conditions: 1 week and 2 weeks
Method: as §1
The compounds of Examples 3(b) (polymorph A), 25 (polymorph B), and 36 (polymorph C) were placed in open containers and exposed 1 week and 2 weeks at 60° C. and 75% relative humidity. In polymorph A, a water content of 2.8% was detected and the HPLC purity was 80%.

[4] = Water absorption and behaviour on exposure to relative humidity; type: physicochemical
[5] = Stability of the crystal forms (general findings); type: physicochemical
[6] = Solubility statements in the description
[7] = Stability of crystalline Form C at 60% RH and 25° C.; type: physicochemical; design: key to Powder X-Ray Diffraction (PXRD): C = Conforms with Reference; conditions: for Assay (Active Ingredient %) / Individual Related Substances (%) / Moisture, KF (%) / Powder X-Ray Diffraction (PXRD) / Product Appearance / Total Related Substances (%) / Impurity D: 25° C./60% RH
Method: (§2) A first batch of crystalline Form C was exposed to 60% RH (relative humidity) at 25° C. for 12 months and a second batch was exposed to 75% RH at 40° C. for 6 months. No changes in polymorphic purities were observed under all the conditions tested, and Form C was the only polymorph detected. The batches were tested for appearance, Total Drug Assay, Related Substances, moisture, and the presence of Impurity D. Appearance of the bulk drug substance was evaluated by visual inspection for color homogeneity, foreign material and texture. Total Drug Assay was determined on an HPLC system with UV detection at 226 nm. A Waters XTerra RP185 μm (4.6×250 mm) column was used at 30° C. The mobile phase was acetonitrile: 5 mM ammonium acetate, pH 10.0 (46:54 v/v). The injection volume aws 20 μL. The run time was 30 min with a flow rate of 1.0 mL/min. Related Substances were analyzed utilizing gradient reversed-phase HPLC with UV detection at 226 nm. A Waters Symmetry C183.5 μm, (150×4.6 mm) column was used at 35° C. Mobile phase A was water with 0.1% TFA and mobile phase B was acetonitrile with 0.1% TFA. The injection volume was 20 μL. The run time was 35 min with a flow rate of 1.0 mL/min. Related substances were quantitated by peak area percent. Moisture was determined with a 737 Karl Fischer Coulometric titrator. The apparatus was operated using Hydranal-Coulomat AG and Hydranal standard-0.1% water check solution-Coulomat AG.

[8] = Stability of crystalline Form C at 75% RH and 40° C.; type: physicochemical; design: key to Powder X-Ray Diffraction (PXRD): C = Conforms with Reference; conditions: 40° C./75% RH
Method: as §2

[9] = Approximate solubility of the crystalline free base in solvents at room temperature; type: physicochemical

CC(C)COc1ccc(CNC(=O)N(Cc2ccc(F)cc2)C2CCN(C)CC2)cc1 [Example 56, N-(4-fluorobenzyl)-N-(1-methylpiperidin-4-yl)-N′-(4-(2-methylpropyloxy)phenylmethyl)carbamide hemi-tartrate]
diameter of about 10% of the particles [1]: ≤ 5 μm | diameter of about 50% of the particles [1]: ≤ 18 μm | diameter of about 90% of the particles [1]: ≤ 35 μm

CC(C)COc1ccc(CNC(=O)N(Cc2ccc(F)cc2)C2CCN(C)CC2)cc1 [Example 60, N-(4-fluorobenzyl)-N-(1-methylpiperidin-4-yl)-N′-(4-(2-methylpropyloxy)phenylmethyl)carbamide tartrate]
diameter of about 10% of the particles [1]: ≤ 9 μm | diameter of about 50% of the particles [1]: ≤ 30 μm | diameter of about 90% of the particles [1]: ≤ 55 μm

CC(C)COc1ccc(CNC(=O)N(Cc2ccc(F)cc2)C2CCN(C)CC2)cc1.CC(C)COc1ccc(CNC(=O)N(Cc2ccc(F)cc2)C2CCN(C)CC2)cc1.O=C(O)C(O)C(O)C(=O)O [Form B, N-(4-fluorobenzyl)-N-(1-methylpiperidin-4-yl)-N′-(4-(2-methylpropyloxy)phenylmethyl)carbamide hemi-tartrate]
HPLC purity after thermal treatment ([2]; listed as polymorph B): 28.3% | Change of crystal form after exposure to humidity [3]: transformed to polymorph C | HPLC purity after exposure to humidity ([3]; listed as polymorph B): 94.6% | water content after exposure to humidity ([3]; listed as polymorph B): 1.9% | Water uptake when exposed to high humidity ([4]; above 80% relative humidity): considerable water uptake | Stability under ambient water partial pressures ([4]; relative humidities between 20% and 75%): sufficient stability | Stability at ambient temperatures ([5]; ambient temperatures): stable

CC(C)COc1ccc(CNC(=O)N(Cc2ccc(F)cc2)C2CCN(C)CC2)cc1 [Form C, N-(4-fluorobenzyl)-N-(1-methylpiperidin-4-yl)-N′-(4-(2-methylpropyloxy)phenylmethyl)carbamide hemi-tartrate]
aqueous solubility ([6]; depends on the pH in aqueous environments): 50 to 100 mg/mL | Solubility in water or aqueous systems (in words) [6]: very high | Assay (Active Ingredient %) ([7]; 0 M): 99.8% | Individual Related Substances (%) ([7]; 0 M): 0.06% | Moisture, KF (%) ([7]; 0 M): 0.3% | Powder X-Ray Diffraction (PXRD) ([7]; 0 M): C | Product Appearance ([7]; 0 M): Conforms | Total Related Substances (%) ([7]; 0 M): 0.06% | Assay (Active Ingredient %) ([7]; 1 M): 99.8% | Individual Related Substances (%) ([7]; 1 M): 0.05% | Moisture, KF (%) ([7]; 1 M): <0.1% | Powder X-Ray Diffraction (PXRD) ([7]; 1 M): C | Product Appearance ([7]; 1 M): Conforms | Total Related Substances (%) ([7]; 1 M): 0.05% | Assay (Active Ingredient %) ([7]; 3 M): 99.7% | Individual Related Substances (%) ([7]; 3 M): <0.05% | Moisture, KF (%) ([7]; 3 M): <0.1% | Product Appearance ([7]; 3 M): Conforms | Total Related Substances (%) ([7]; 3 M): <0.05% | Assay (Active Ingredient %) ([7]; 6 M): 99.8% | Individual Related Substances (%) ([7]; 6 M): 0.06% | Moisture, KF (%) ([7]; 6 M): 0.2% | Powder X-Ray Diffraction (PXRD) ([7]; 6 M): C | Product Appearance ([7]; 6 M): Conforms | Total Related Substances (%) ([7]; 6 M): <0.06% | Assay (Active Ingredient %) ([7]; 9 M): 99.4% | Impurity D ([7]; 9 M): 0.2 | Individual Related Substances (%) ([7]; 9 M): <0.05% | Moisture, KF (%) ([7]; 9 M): <0.1% | Powder X-Ray Diffraction (PXRD) ([7]; 9 M): C | Product Appearance ([7]; 9 M): Conforms | Total Related Substances (%) ([7]; 9 M): <0.05% | Assay (Active Ingredient %) ([7]; 12 M): 99.1% | Impurity D ([7]; 12 M): 0.2 | Individual Related Substances (%) ([7]; 12 M): 0.05% | Moisture, KF (%) ([7]; 12 M): <0.1% | Powder X-Ray Diffraction (PXRD) ([7]; 12 M): C | Product Appearance ([7]; 12 M): Conforms | Total Related Substances (%) ([7]; 12 M): 0.05% | Changes in polymorphic purities ([7]; 60% RH at 25° C. for 12 months and 75% RH at 40° C. for 6 months): No changes | Assay (Active Ingredient %) ([8]; 0 M): 99.8% | Individual Related Substances (%) ([8]; 0 M): 0.06% | Moisture, KF (%) ([8]; 0 M): 0.3% | Powder X-Ray Diffraction (PXRD) ([8]; 0 M): C | Total Related Substances (%) ([8]; 0 M): 0.06% | Assay (Active Ingredient %) ([8]; 1 M): 99.8% | Individual Related Substances (%) ([8]; 1 M): 0.05% | Moisture, KF (%) ([8]; 1 M): <0.1% | Powder X-Ray Diffraction (PXRD) ([8]; 1 M): C | Total Related Substances (%) ([8]; 1 M): 0.05% | Assay (Active Ingredient %) ([8]; 3 M): 99.5% | Individual Related Substances (%) ([8]; 3 M): <0.05% | Moisture, KF (%) ([8]; 3 M): <0.1% | Total Related Substances (%) ([8]; 3 M): <0.05% | Assay (Active Ingredient %) ([8]; 6 M): 99.7% | Individual Related Substances (%) ([8]; 6 M): 0.23% | Moisture, KF (%) ([8]; 6 M): 0.1% | Powder X-Ray Diffraction (PXRD) ([8]; 6 M): C | Total Related Substances (%) ([8]; 6 M): 0.23% | HPLC purity after thermal treatment [2]: 99.7% | State of the material after thermal treatment [2]: substantially unchanged | Change of crystal form after exposure to humidity [3]: remained unchanged | HPLC purity after exposure to humidity [3]: 99.7% | Dynamic pour absorption experiments: water absorption [4]: does not absorb water | Stability in an open container ([4]; 75% relative humidity): stable | Deliquescence or hygroscopicity ([4]; about 95% relative humidity): no deliquescence or hygroscopicity | Water absorption ([4]; at about 95% relative humidity): about 1% | Stability compared with all found crystal forms [5]: most stable form

CC(C)COc1ccc(CNC(=O)N(Cc2ccc(F)cc2)C2CCN(C)CC2)cc1 [Form D, N-(4-fluorobenzyl)-N-(1-methylpiperidin-4-yl)-N′-(4-(2-methylpropyloxy)phenylmethyl)carbamide hemi-tartrate]
Stability in an open container ([4]; 53% relative humidity): stable

CC(C)COc1ccc(CNC(=O)N(Cc2ccc(F)cc2)C2CCN(C)CC2)cc1 [crystalline free base of formula I, N-(4-fluorobenzyl)-N-(1-methylpiperidin-4-yl)-N′-(4-(2-methylpropyloxy)phenylmethyl)carbamide]
solubility ([9]; acetonitrile): <50 mg/mL | solubility ([9]; ethyl acetate): <30 mg/mL | solubility ([9]; organic solvent or mixture, 1,4-dioxane, read-out: Solubility): 140 mg/mL | solubility ([9]; organic solvent or mixture, acetone, read-out: Solubility): 100 mg/mL | solubility ([9]; organic solvent or mixture, dichloromethane, read-out: Solubility): > 500 mg/mL | solubility ([9]; organic solvent or mixture, ethanol, read-out: Solubility): 260 mg/mL | solubility ([9]; organic solvent or mixture, isopropanol, read-out: Solubility): 100 mg/mL | solubility ([9]; organic solvent or mixture, methanol, read-out: Solubility): 170 mg/mL | solubility ([9]; organic solvent or mixture, tetrahydrofuran, read-out: Solubility): > 250 mg/mL | solubility ([9]; toluene): <70 mg/mL | solubility ([9]; water, read-out: Solubility): < 4 mg/mL

CC(C)COc1ccc(CNC(=O)N(Cc2ccc(F)cc2)C2CCN(C)CC2)cc1 [formula I, N-(4-fluorobenzyl)-N-(1-methylpiperidin-4-yl)-N′-(4-(2-methylpropyloxy)phenylmethyl)carbamide]
Solubility in water or aqueous systems (in words) [6]: low solubility

CC(C)COc1ccc(CNC(=O)N(Cc2ccc(F)cc2)C2CCN(C)CC2)cc1 [formula IV, N-(4-fluorobenzyl)-N-(1-methylpiperidin-4-yl)-N′-(4-(2-methylpropyloxy)phenylmethyl)carbamide hemi-tartrate]
Solubility in water or aqueous systems (in words) [6]: very good solubility
